{
  "source": "patent US11725011B2",
  "about": "“Bicyclic urea kinase inhibitors and uses thereof” (The Broad Institute, Inc., priority 2016, dated 2023)",
  "conditions_in_all_cases": "1 uM",
  "key": {"CHEK1": {"molecular_target": "CHEK1 (Homo sapiens (Human), UniProt O14757)", "sequence (O14757 whole entry)": "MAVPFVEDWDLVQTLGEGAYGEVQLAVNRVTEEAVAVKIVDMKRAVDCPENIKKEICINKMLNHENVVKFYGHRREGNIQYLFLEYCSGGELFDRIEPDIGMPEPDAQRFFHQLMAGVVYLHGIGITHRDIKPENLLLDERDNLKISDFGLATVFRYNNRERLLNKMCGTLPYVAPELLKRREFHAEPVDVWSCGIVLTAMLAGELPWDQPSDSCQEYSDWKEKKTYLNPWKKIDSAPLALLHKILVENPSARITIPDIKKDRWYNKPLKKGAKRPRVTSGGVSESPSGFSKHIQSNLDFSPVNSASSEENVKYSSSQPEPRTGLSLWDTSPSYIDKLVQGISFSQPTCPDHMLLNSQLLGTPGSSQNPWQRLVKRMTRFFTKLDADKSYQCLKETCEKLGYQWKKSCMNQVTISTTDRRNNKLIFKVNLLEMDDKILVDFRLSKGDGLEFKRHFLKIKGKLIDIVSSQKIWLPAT", "experiment": "KINOMEscan", "assay_type": "binding"}, "PKN1": {"molecular_target": "PKN1 (Homo sapiens (Human), UniProt Q16512)", "experiment": "KINOMEscan", "assay_type": "binding"}, "ERBB3": {"molecular_target": "ERBB3 (Homo sapiens (Human), UniProt P21860)", "experiment": "KINOMEscan", "assay_type": "binding"}, "IKK-alpha": {"molecular_target": "IKK-alpha (Homo sapiens (Human), UniProt O15111)", "sequence (O15111 whole entry)": "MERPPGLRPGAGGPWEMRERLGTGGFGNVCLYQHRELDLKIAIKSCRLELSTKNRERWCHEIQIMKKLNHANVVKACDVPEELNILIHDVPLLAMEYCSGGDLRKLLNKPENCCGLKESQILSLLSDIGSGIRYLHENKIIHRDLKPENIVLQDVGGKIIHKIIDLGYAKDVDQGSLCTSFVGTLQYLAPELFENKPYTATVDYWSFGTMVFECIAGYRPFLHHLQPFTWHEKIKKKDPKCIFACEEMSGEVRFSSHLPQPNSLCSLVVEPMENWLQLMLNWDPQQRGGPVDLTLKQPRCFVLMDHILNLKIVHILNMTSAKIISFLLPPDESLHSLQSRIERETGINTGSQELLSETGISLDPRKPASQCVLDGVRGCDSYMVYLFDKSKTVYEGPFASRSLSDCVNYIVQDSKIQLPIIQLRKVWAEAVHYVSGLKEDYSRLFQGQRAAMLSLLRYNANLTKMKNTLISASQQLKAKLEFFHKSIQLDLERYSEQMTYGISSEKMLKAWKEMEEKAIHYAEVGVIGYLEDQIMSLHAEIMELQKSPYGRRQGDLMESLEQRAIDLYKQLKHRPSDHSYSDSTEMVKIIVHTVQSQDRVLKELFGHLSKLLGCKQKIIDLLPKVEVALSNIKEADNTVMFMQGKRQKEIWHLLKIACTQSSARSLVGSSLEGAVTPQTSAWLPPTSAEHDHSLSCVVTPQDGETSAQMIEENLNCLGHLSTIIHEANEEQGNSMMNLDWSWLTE", "experiment": "KINOMEscan", "assay_type": "binding"}, "PIK3CG": {"molecular_target": "PIK3CG (Homo sapiens (Human), UniProt P48736)", "experiment": "KINOMEscan", "assay_type": "binding"}, "ULK3": {"molecular_target": "ULK3 (Homo sapiens (Human), UniProt Q6PHR2)", "sequence (Q6PHR2 whole entry)": "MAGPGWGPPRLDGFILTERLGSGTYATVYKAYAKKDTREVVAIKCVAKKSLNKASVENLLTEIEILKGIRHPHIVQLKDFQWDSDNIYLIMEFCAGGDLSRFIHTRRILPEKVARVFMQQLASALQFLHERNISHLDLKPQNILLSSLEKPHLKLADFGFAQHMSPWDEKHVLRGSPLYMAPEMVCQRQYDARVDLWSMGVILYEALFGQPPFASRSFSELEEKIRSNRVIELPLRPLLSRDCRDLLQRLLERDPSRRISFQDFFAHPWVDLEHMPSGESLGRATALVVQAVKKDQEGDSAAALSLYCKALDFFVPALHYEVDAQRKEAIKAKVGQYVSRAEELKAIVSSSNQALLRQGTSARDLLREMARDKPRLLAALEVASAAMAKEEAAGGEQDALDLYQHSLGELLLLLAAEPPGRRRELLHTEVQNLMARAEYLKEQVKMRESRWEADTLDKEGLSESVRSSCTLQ", "experiment": "KINOMEscan", "assay_type": "binding"}, "PRP4": {"molecular_target": "PRP4 (Homo sapiens (Human), UniProt Q13523)", "experiment": "KINOMEscan", "assay_type": "binding"}, "CAMKK2": {"molecular_target": "CAMKK2 (Homo sapiens (Human), UniProt Q96RR4)", "experiment": "KINOMEscan", "assay_type": "binding"}, "FLT1": {"molecular_target": "FLT1 (Homo sapiens (Human), UniProt P17948)", "experiment": "KINOMEscan", "assay_type": "binding"}, "MRCKB": {"molecular_target": "MRCKB (Homo sapiens (Human), UniProt Q9Y5S2)", "experiment": "KINOMEscan", "assay_type": "binding"}, "FGFR3 (G697C)": {"molecular_target": "FGFR3 (G697C) (Homo sapiens (Human), UniProt P22607, G697C)", "sequence (P22607 23-806 G697C)": "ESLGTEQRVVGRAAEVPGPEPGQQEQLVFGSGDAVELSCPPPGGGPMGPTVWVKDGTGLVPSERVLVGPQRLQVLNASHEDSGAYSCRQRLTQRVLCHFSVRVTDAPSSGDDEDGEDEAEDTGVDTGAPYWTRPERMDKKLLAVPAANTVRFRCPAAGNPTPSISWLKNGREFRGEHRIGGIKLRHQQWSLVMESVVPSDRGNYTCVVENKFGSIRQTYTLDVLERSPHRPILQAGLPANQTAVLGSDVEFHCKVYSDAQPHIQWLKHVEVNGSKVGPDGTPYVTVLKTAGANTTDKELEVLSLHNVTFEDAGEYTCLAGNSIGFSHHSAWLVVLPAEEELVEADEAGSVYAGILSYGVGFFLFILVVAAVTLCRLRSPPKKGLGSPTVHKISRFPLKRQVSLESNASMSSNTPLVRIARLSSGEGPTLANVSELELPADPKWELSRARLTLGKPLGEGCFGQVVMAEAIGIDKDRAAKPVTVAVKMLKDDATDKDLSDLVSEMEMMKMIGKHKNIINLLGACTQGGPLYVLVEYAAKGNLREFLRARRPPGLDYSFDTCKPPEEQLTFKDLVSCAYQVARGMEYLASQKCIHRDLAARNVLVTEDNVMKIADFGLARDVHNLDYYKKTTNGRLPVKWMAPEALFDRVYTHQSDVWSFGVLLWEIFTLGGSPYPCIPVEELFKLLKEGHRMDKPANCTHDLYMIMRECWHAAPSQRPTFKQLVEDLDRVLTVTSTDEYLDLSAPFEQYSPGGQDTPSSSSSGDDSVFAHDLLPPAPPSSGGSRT", "experiment": "KINOMEscan", "assay_type": "binding"}, "[1]": {"molecular_target": "JAK1 (JH1domain-catalytic) (Homo sapiens (Human), UniProt P23458)", "experiment": "KINOMEscan", "assay_type": "binding"}, "MTOR": {"molecular_target": "MTOR (Homo sapiens (Human), UniProt P42345)", "experiment": "KINOMEscan", "assay_type": "binding"}, "SIK2": {"molecular_target": "SIK2 (Homo sapiens (Human), UniProt Q9H0K1)", "experiment": "KINOMEscan", "assay_type": "binding"}, "MST3": {"molecular_target": "MST3 (Homo sapiens (Human), UniProt Q9Y6E0)", "sequence (Q9Y6E0 whole entry)": "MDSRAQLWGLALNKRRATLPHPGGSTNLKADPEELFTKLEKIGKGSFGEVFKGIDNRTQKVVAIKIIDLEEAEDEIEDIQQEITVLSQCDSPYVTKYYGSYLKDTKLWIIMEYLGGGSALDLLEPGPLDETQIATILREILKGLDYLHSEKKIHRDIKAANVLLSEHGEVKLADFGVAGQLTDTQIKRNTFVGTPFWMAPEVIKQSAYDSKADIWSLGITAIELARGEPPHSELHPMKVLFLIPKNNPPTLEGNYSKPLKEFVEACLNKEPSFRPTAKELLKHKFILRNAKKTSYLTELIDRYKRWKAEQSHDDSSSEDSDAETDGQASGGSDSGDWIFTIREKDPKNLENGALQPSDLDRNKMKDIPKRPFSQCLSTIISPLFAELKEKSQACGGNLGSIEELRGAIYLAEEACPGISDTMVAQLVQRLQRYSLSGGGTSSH", "experiment": "KINOMEscan", "assay_type": "binding"}, "TYRO3": {"molecular_target": "TYRO3 (Homo sapiens (Human), UniProt Q06418)", "experiment": "KINOMEscan", "assay_type": "binding"}, "IRAK3": {"molecular_target": "IRAK3 (Homo sapiens (Human), UniProt Q9Y616)", "experiment": "KINOMEscan", "assay_type": "binding"}, "HCK": {"molecular_target": "HCK (Homo sapiens (Human), UniProt P08631)", "sequence (P08631 whole entry)": "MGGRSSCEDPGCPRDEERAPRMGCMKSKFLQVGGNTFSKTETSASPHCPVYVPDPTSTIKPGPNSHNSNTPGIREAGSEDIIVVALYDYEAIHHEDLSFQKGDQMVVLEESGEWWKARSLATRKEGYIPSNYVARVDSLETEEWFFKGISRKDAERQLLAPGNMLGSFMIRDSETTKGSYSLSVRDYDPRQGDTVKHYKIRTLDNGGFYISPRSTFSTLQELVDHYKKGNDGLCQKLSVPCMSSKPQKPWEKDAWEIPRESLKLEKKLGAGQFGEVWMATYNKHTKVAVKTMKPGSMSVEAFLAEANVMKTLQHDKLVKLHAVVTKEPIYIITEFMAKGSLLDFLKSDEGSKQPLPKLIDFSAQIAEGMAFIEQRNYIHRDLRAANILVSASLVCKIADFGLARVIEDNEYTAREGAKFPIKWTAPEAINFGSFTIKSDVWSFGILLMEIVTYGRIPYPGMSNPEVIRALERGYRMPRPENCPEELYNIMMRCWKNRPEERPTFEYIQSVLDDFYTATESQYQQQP", "experiment": "KINOMEscan", "assay_type": "binding"}, "QSK": {"molecular_target": "QSK (Homo sapiens (Human), UniProt Q9Y2K2)", "experiment": "KINOMEscan", "assay_type": "binding"}, "[2]": {"molecular_target": "RPS6KA5 (Kin.Dom.2-C-terminal) (Homo sapiens (Human), UniProt O75582)", "experiment": "KINOMEscan", "assay_type": "binding"}, "CDK7": {"molecular_target": "CDK7 (Homo sapiens (Human), UniProt P50613)", "experiment": "KINOMEscan", "assay_type": "binding"}, "PAK4": {"molecular_target": "PAK4 (Homo sapiens (Human), UniProt O96013)", "experiment": "KINOMEscan", "assay_type": "binding"}, "[3]": {"molecular_target": "RPS6KA4 (Kin.Dom.2-C-terminal) (Homo sapiens (Human), UniProt O75676)", "experiment": "KINOMEscan", "assay_type": "binding"}, "EPHA5": {"molecular_target": "EPHA5 (Homo sapiens (Human), UniProt P54756)", "experiment": "KINOMEscan", "assay_type": "binding"}, "[4]": {"molecular_target": "ABL1 (E255K)-phosphorylated (Homo sapiens (Human), UniProt P00519, E255K)", "experiment": "KINOMEscan", "assay_type": "binding"}, "AXL": {"molecular_target": "AXL (Homo sapiens (Human), UniProt P30530)", "experiment": "KINOMEscan", "assay_type": "binding"}, "INSR": {"molecular_target": "INSR (Homo sapiens (Human), UniProt P06213)", "sequence (P06213 28-1382)": "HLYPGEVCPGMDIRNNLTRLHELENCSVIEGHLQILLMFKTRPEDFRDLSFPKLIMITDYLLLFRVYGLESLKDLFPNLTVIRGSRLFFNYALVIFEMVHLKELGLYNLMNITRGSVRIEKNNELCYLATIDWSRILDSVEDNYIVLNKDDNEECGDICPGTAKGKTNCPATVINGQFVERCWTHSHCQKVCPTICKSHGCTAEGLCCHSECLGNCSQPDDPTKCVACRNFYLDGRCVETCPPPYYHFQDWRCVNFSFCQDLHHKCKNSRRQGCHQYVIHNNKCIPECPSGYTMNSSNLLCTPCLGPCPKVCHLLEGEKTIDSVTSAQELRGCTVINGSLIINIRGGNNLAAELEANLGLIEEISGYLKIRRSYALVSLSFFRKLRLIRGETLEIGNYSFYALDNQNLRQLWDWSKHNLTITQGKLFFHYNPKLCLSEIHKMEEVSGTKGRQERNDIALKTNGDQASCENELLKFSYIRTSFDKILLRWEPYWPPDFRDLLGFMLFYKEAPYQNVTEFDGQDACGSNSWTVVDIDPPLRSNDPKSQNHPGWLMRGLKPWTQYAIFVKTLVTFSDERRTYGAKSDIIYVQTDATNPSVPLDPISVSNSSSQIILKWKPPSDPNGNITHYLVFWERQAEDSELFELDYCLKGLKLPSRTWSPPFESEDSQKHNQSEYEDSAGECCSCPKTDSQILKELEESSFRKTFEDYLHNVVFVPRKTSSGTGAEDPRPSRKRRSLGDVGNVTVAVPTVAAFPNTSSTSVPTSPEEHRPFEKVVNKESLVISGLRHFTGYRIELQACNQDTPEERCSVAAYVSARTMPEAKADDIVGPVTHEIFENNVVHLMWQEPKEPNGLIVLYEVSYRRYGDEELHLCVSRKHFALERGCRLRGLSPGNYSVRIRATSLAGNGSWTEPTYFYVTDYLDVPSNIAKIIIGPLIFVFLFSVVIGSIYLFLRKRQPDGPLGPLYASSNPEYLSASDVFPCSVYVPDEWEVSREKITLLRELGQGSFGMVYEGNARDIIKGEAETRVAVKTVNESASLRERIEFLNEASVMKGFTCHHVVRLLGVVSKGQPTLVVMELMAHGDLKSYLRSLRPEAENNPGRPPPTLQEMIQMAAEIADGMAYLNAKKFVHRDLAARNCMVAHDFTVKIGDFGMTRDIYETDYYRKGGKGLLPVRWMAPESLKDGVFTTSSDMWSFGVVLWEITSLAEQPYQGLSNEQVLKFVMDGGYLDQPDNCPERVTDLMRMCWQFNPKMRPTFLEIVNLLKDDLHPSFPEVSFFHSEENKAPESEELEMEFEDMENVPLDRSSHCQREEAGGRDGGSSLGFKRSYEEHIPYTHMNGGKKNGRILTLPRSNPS", "experiment": "KINOMEscan", "assay_type": "binding"}, "PLK2": {"molecular_target": "PLK2 (Homo sapiens (Human), UniProt Q9NYY3)", "experiment": "KINOMEscan", "assay_type": "binding"}, "DCAMKL2": {"molecular_target": "DCAMKL2 (Homo sapiens (Human), UniProt Q8N568)", "experiment": "KINOMEscan", "assay_type": "binding"}, "TSSK1B": {"molecular_target": "TSSK1B (Homo sapiens (Human), UniProt Q9BXA7)", "experiment": "KINOMEscan", "assay_type": "binding"}, "[5]": {"molecular_target": "ABL1 (F317I)-phosphorylated (Homo sapiens (Human), UniProt P00519, F317I)", "experiment": "KINOMEscan", "assay_type": "binding"}, "PDPK1": {"molecular_target": "PDPK1 (Homo sapiens (Human), UniProt O15530)", "experiment": "KINOMEscan", "assay_type": "binding"}, "MLCK": {"molecular_target": "MLCK (Homo sapiens (Human), UniProt Q32MK0)", "experiment": "KINOMEscan", "assay_type": "binding"}, "CSNK1G1": {"molecular_target": "CSNK1G1 (Homo sapiens (Human), UniProt Q9HCP0)", "experiment": "KINOMEscan", "assay_type": "binding"}, "YSK1": {"molecular_target": "YSK1 (Homo sapiens (Human), UniProt O00506)", "experiment": "KINOMEscan", "assay_type": "binding"}, "CDC2L5": {"molecular_target": "CDC2L5 (Homo sapiens (Human), UniProt Q14004)"}, "RIPK4": {"molecular_target": "RIPK4 (Homo sapiens (Human), UniProt P57078)", "experiment": "KINOMEscan", "assay_type": "binding"}, "BRK": {"molecular_target": "BRK (Homo sapiens (Human), UniProt Q13882)", "experiment": "KINOMEscan", "assay_type": "binding"}, "[6]": {"molecular_target": "EGFR (L747-E749del, A750P) (Homo sapiens (Human), UniProt P00533, A750P/DEL747-749)", "experiment": "KINOMEscan", "assay_type": "binding"}, "BMX": {"molecular_target": "BMX (Homo sapiens (Human), UniProt P51813)", "experiment": "KINOMEscan", "assay_type": "binding"}},
  "data": [
    {"smiles": "COc1ccc(N2C(=O)N(c3c(C)cccc3C)Cc3cnc(Nc4ccc(N5CCN(C)CC5)cc4)nc32)c(OC)c1", "note": "[HG-11-136-01]", "values": [
      {"measurement": "KINOMEscan CHEK1", "setting": "CHEK1", "result": 82},
      {"measurement": "KINOMEscan PKN1", "setting": "PKN1", "result": 95},
      {"measurement": "KINOMEscan ERBB3", "setting": "ERBB3", "result": 0},
      {"measurement": "KINOMEscan IKK-alpha", "setting": "IKK-alpha", "result": 99},
      {"measurement": "KINOMEscan PIK3CG", "setting": "PIK3CG", "result": 77},
      {"measurement": "KINOMEscan ULK3", "setting": "ULK3", "result": 2},
      {"measurement": "KINOMEscan PRP4", "setting": "PRP4", "result": 100},
      {"measurement": "KINOMEscan CAMKK2", "setting": "CAMKK2", "result": 100},
      {"measurement": "KINOMEscan FLT1", "setting": "FLT1", "result": 5.2},
      {"measurement": "KINOMEscan MRCKB", "setting": "MRCKB", "result": 38},
      {"measurement": "KINOMEscan FGFR3 (G697C)", "setting": "FGFR3 (G697C)", "result": 1.4},
      {"measurement": "KINOMEscan JAK1 (JH1domain-catalytic)", "setting": "[1]", "result": 57},
      {"measurement": "KINOMEscan MTOR", "setting": "MTOR", "result": 83},
      {"measurement": "KINOMEscan SIK2", "setting": "SIK2", "result": 6.1},
      {"measurement": "KINOMEscan MST3", "setting": "MST3", "result": 4.6},
      {"measurement": "KINOMEscan TYRO3", "setting": "TYRO3", "result": 1.6},
      {"measurement": "KINOMEscan IRAK3", "setting": "IRAK3", "result": 38},
      {"measurement": "KINOMEscan HCK", "setting": "HCK", "result": 0.05},
      {"measurement": "KINOMEscan QSK", "setting": "QSK", "result": 0.25},
      {"measurement": "KINOMEscan RPS6KA5 (Kin.Dom.2-C-terminal)", "setting": "[2]", "result": 80},
      {"measurement": "KINOMEscan CDK7", "setting": "CDK7", "result": 60},
      {"measurement": "KINOMEscan PAK4", "setting": "PAK4", "result": 34},
      {"measurement": "KINOMEscan RPS6KA4 (Kin.Dom.2-C-terminal)", "setting": "[3]", "result": 90},
      {"measurement": "KINOMEscan EPHA5", "setting": "EPHA5", "result": 0.6},
      {"measurement": "KINOMEscan ABL1 (E255K)-phosphorylated", "setting": "[4]", "result": 0.4},
      {"measurement": "KINOMEscan AXL", "setting": "AXL", "result": 25},
      {"measurement": "KINOMEscan INSR", "setting": "INSR", "result": 48},
      {"measurement": "KINOMEscan PLK2", "setting": "PLK2", "result": 21},
      {"measurement": "KINOMEscan DCAMKL2", "setting": "DCAMKL2", "result": 88},
      {"measurement": "KINOMEscan TSSK1B", "setting": "TSSK1B", "result": 50},
      {"measurement": "KINOMEscan ABL1 (F317I)-phosphorylated", "setting": "[5]", "result": 1.3},
      {"measurement": "KINOMEscan PDPK1", "setting": "PDPK1", "result": 100},
      {"measurement": "KINOMEscan MLCK", "setting": "MLCK", "result": 100},
      {"measurement": "KINOMEscan CSNK1G1", "setting": "CSNK1G1", "result": 92},
      {"measurement": "KINOMEscan YSK1", "setting": "YSK1", "result": 19},
      {"measurement": "KINOMEscan CDC2L5", "setting": "CDC2L5", "result": 65},
      {"measurement": "KINOMEscan RIPK4", "setting": "RIPK4", "result": 55},
      {"measurement": "KINOMEscan BRK", "setting": "BRK", "result": 0.45},
      {"measurement": "KINOMEscan EGFR (L747-E749del, A750P)", "setting": "[6]", "result": 0.35},
      {"measurement": "KINOMEscan BMX", "setting": "BMX", "result": 3}
    ]}
  ]
}
